# According to patent US9457033B2, “Steroid alkaloids and uses thereof as antimicrobial agents against electron transport-deficient microbes and as potentiators for antimicrobial agents against pathogenic bacteria” (priority 2011, dated 2016):
# Where two headings read alike, the source gives them in different places.
# Tests used:
# [1] = system: S. aureus ATCC 29213; test: Time-kill experiments, aminoglycoside alone or with tomatidine (FIGS. 8-10)
# [2] = system: S. aureus ATCC 29213; test: MIC, microdilution in CAMHB 24 h, with or without tomatidine/compound; assay type: cell-based, Staphylococcus aureus; details: for MIC: Staphylococcus aureus
# [3] = system: S. aureus ATCC 29213; test: Checkerboard assay, aminoglycoside and tomatidine; assay type: cell-based, Staphylococcus aureus; details: for MIC: Staphylococcus aureus, ATCC29213, checkerboard
# Protocol: This checkerboard protocol (Eliopoulos and Moellering, 1996) was conducted by a microdilution method similar to that use for standard MICs determination. In 96 wells plates, antibiotics were loaded at a 4× concentration (where X is the maximal tested concentration) in well A1 and at a 2× concentration in the others wells of the column 1. Antibiotics were serially diluted 1:1 from the column 2 to column 10. […] Wells A12, B12, […] are positive untreated controls whereas wells […] are negative non-inoculated controls. […] The FIC index was calculated as follow (Eliopoulos and Moellering, 1996): FIC […]/MICB, where A and B are MICs of compounds A and B in combination and where MICA and MICB are the MICs of compound A alone and of compound B alone, respectively, and FICA and FICB are the FICs of compound A and of compound B, respectively.
# [4] = system: S. aureus 8325-4; test: MIC, microdilution in CAMHB 24 h; assay type: cell-based, Staphylococcus aureus; details: 8325-4; for MIC: Staphylococcus aureus, 83254
# [5] = system: S. aureus Newbould; test: MIC, microdilution in CAMHB 24 h; assay type: cell-based, Staphylococcus aureus; details: Newbould; for MIC: Staphylococcus aureus
# [6] = system: S. aureus SHY97-3906; test: MIC, microdilution in CAMHB 24 h; assay type: cell-based, Staphylococcus aureus; details: for MIC: Staphylococcus aureus, SHY973906
# [7] = system: S. aureus ATCC BAA-41; test: MIC, microdilution in CAMHB 24 h; assay type: cell-based, Staphylococcus aureus; details: for MIC: Staphylococcus aureus
# [8] = system: S. aureus N315; test: microbe, parasite or virus in culture; assay type: cell-based, Staphylococcus aureus; details: for MIC: Staphylococcus aureus
# [9] = system: S. aureus Newman; test: MIC, microdilution in CAMHB 24 h; assay type: cell-based, Staphylococcus aureus; details: Newman; for MIC: Staphylococcus aureus
# [10] = system: S. aureus MRSA COL; test: MIC, microdilution in CAMHB 24 h; assay type: cell-based, Staphylococcus aureus; details: MRSA COL; for MIC: Staphylococcus aureus
# [11] = system: S. aureus Mu50; test: MIC, microdilution in CAMHB 24 h; assay type: cell-based, Staphylococcus aureus; details: for MIC: Staphylococcus aureus
# [12] = system: S. aureus Sa228c; test: MIC, microdilution in CAMHB 24 h; assay type: cell-based, Staphylococcus aureus; details: for MIC: Staphylococcus aureus
# [13] = system: S. aureus CF1A-L; test: MIC, microdilution in CAMHB 24 h; assay type: cell-based, Staphylococcus aureus; details: CF1A-L; for MIC: Staphylococcus aureus, CF1AL
# [14] = system: S. aureus CF2A-L; test: MIC, microdilution in CAMHB 24 h; assay type: cell-based; details: CF2A-L; for MIC: Staphylococcus aureus, CF2AL
# [15] = system: S. aureus CF6B-L; test: MIC, microdilution in CAMHB 24 h; assay type: cell-based, Staphylococcus aureus; details: CF6B-L; for MIC: Staphylococcus aureus, CF6BL
# [16] = system: S. aureus CF7A-L; test: MIC, microdilution in CAMHB 24 h; assay type: cell-based, Staphylococcus aureus; details: CF7A-L; for MIC: Staphylococcus aureus
# [17] = system: S. aureus CF8E-L; test: MIC, microdilution in CAMHB 24 h; assay type: cell-based, Staphylococcus aureus; details: CF8E-L; for MIC: Staphylococcus aureus, CF8EL
# [18] = system: S. aureus CF9A-L; test: MIC, microdilution in CAMHB 24 h; assay type: cell-based, Staphylococcus aureus; details: CF9A-L; for MIC: Staphylococcus aureus
# [19] = system: S. aureus CF35A-L; test: MIC, microdilution in CAMHB 24 h; assay type: cell-based, Staphylococcus aureus; details: CF35A-L; for MIC: Staphylococcus aureus
# [20] = 8 μg/ml of tomatidine, read-out: MIC +TO
# [21] = absence of tomatidine, read-out: MIC −TO
# [22] = Human (CF lungs), read-out: MIC
# [23] = Human (CF lungs), MRSA, read-out: MIC
smiles,measurement,setting,value
"C[C@H]1CC[C@]2(NC1)O[C@H]1C[C@H]3[C@@H]4CC[C@H]5C[C@@H](O)CC[C@]5(C)[C@H]4CC[C@]3(C)[C@H]1[C@@H]2C [Tomatidine, tomatidine]",emergence of resistant CFU,"[1]; combination of tomatidine (8 μg/ml) and gentamicin, FIG. 10",significantly reduced the emergence
same,number of CFU recovered,"[1]; cultures exposed to gentamicin 0.5 to 4 μg/ml for 24 h, with 8 μg/ml tomatidine, FIG. 10",significantly decrease
same,regrowth of bacteria exposed to gentamicin or tobramycin,"[1]; tomatidine at 8 μg/ml with aminoglycoside 1 μg/ml, 24 h, FIG. 9",markedly reduced the regrowth
"NC[C@H]1O[C@H](O[C@H]2[C@H](O)[C@@H](O[C@H]3O[C@H](CO)[C@@H](O)[C@H](N)[C@H]3O)[C@H](N)C[C@@H]2N)[C@H](O)[C@@H](O)[C@@H]1O [Kanamycin, kanamycin]",Fold (−TO/+TO),"[2]; ATCC 29123, 8 μg/ml of tomatidine",4-8 fold
same,Fold (−TO/+TO),"[2]; ATCC 29213, tomatidine at 8 μg/ml",4-8 fold
same,MIC,"[2]; ATCC 29123 / ATCC 29213, ATCC 29123, 8 μg/ml of tomatidine, read-out: MIC +TO",0.5 µg/mL
same,MIC,"[2]; ATCC 29123 / ATCC 29213, ATCC 29123, absence of tomatidine, read-out: MIC −TO",2 to 4 µg/mL
same,MIC,"[2]; ATCC29213, ATCC 29213, Human (SSTI), read-out: MIC",2 to 4 µg/mL
same,MIC,"[2]; ATCC29213, ATCC 29213, absence of tomatidine, read-out: MIC −TO",2 to 4 µg/mL
same,MIC,"[2]; ATCC29213, ATCC 29213, presence of tomatidine at 8 μg/ml, read-out: MIC +TO",0.5 µg/mL
same,MIC,[3]; tomatidine 0 μg/ml,2 to 4 µg/mL
same,MIC,[3]; tomatidine 0.06 μg/ml,2 µg/mL
same,MIC,[3]; tomatidine 0.12 μg/ml,0.5 to 1 µg/mL
same,MIC,[3]; tomatidine 0.25 μg/ml,0.5 µg/mL
same,MIC,[3]; tomatidine 0.5 μg/ml,0.5 µg/mL
same,MIC,[3]; tomatidine 1 μg/ml,0.5 to 1 µg/mL
same,MIC,[3]; tomatidine 2 μg/ml,0.25 to 0.5 µg/mL
same,MIC,[3]; tomatidine 4 μg/ml,0.5 µg/mL
same,MIC,[3]; tomatidine 8 μg/ml,0.5 µg/mL
same,FIC index,"[3]; aminoglycoside with tomatidine, tomatidine MIC considered 32 μg/ml, values overestimated",≦0.193
same,Fold (−TO/+TO),[4]; 8 μg/ml of tomatidine,2-4 fold
same,MIC,[4]; [20],0.5 to 4 µg/mL
same,MIC,"[4]; Laboratory strain, read-out: MIC",2 to 8 µg/mL
same,MIC,[4]; [21],2 to 8 µg/mL
same,Fold (−TO/+TO),[5]; 8 μg/ml of tomatidine,8 fold
same,MIC,[5]; [20],0.5 µg/mL
same,MIC,"[5]; Cow (mastitis), read-out: MIC",4 µg/mL
same,MIC,[5]; [21],4 µg/mL
same,Fold (−TO/+TO),"[6]; SHY-3906, 8 μg/ml of tomatidine",4 fold
same,MIC,"[6]; SHY97-3906, Cow (mastitis), read-out: MIC",2 µg/mL
same,MIC,"[6]; SHY-3906, 8 μg/ml of tomatidine, read-out: MIC +TO",0.5 µg/mL
same,MIC,"[6]; SHY-3906, absence of tomatidine, read-out: MIC −TO",2 µg/mL
same,Fold (−TO/+TO),"[7]; ATCC BAA-41, 8 μg/ml of tomatidine",4-8 fold
same,MIC,"[7]; ATCC BAA-41 / MRSA, ATCC BAA-41, Human (HA), MRSA, read-out: MIC",256 to 512 µg/mL
same,MIC,"[7]; ATCCBAA41, ATCC BAA-41, ant(4′)-Ia, 8 μg/ml of tomatidine, read-out: MIC +TO",64 µg/mL
same,MIC,"[7]; ATCCBAA41, ATCC BAA-41, ant(4′)-Ia, absence of tomatidine, read-out: MIC −TO",256 to 512 µg/mL
same,Fold (−TO/+TO),"[8]; N315, 8 μg/ml of tomatidine",4 fold
same,MIC,"[8]; N315, read-out: MIC +TO",64 µg/mL
same,MIC,"[8]; N315, read-out: MIC −TO",256 µg/mL
same,Fold (−TO/+TO),[9]; 8 μg/ml of tomatidine,8 fold
same,MIC,[9]; [20],0.5 µg/mL
same,MIC,"[9]; Human (Osteo), read-out: MIC",4 µg/mL
same,MIC,[9]; [21],4 µg/mL
same,Fold (−TO/+TO),[10]; 8 μg/ml of tomatidine,8 fold
same,MIC,[10]; [20],0.5 µg/mL
same,MIC,"[10]; Human (SSTI), read-out: MIC",4 µg/mL
same,MIC,[10]; [21],4 µg/mL
same,Fold (−TO/+TO),"[11]; Mu50, 8 μg/ml of tomatidine",>2-4 fold
same,MIC,"[11]; Mu50, aac(6′)-aph(2″), ant(4′)-Ia, 8 μg/ml of tomatidine, read-out: MIC +TO",256 to 512 µg/mL
same,MIC,"[11]; Mu50, aac(6′)-aph(2″), ant(4′)-Ia, absence of tomatidine, read-out: MIC −TO",> 1020 µg/mL
same,MIC,"[11]; Mu50, Human (SSTI), MRSA, VISA, read-out: MIC",> 1020 µg/mL
same,Fold (−TO/+TO),"[12]; Sa228c, 8 μg/ml of tomatidine",2-8 fold
same,MIC,[12]; MRSA,512 to 1020 µg/mL
same,MIC,"[12]; SA228C, read-out: MIC +TO",128 to 256 µg/mL
same,MIC,"[12]; SA228C, read-out: MIC −TO",512 to 1020 µg/mL
same,Fold (−TO/+TO),[13]; 8 μg/ml of tomatidine,8 fold
same,MIC,[13]; [20],0.5 µg/mL
same,MIC,[13]; [22],4 µg/mL
same,MIC,[13]; [21],4 µg/mL
same,Fold (−TO/+TO),[14]; 8 μg/ml of tomatidine,8 fold
same,MIC,[14]; [20],0.5 µg/mL
same,MIC,[14]; [22],4 µg/mL
same,MIC,[14]; [21],4 µg/mL
same,Fold (−TO/+TO),[15]; 8 μg/ml of tomatidine,4-8 fold
same,MIC,"[15]; aac(6′)-aph(2″), 8 μg/ml of tomatidine, read-out: MIC +TO",128 to 256 µg/mL
same,MIC,"[15]; aac(6′)-aph(2″), absence of tomatidine, read-out: MIC −TO",1020 µg/mL
same,MIC,[15]; [22],1020 µg/mL
same,Fold (−TO/+TO),[16]; 8 μg/ml of tomatidine,2-4 fold
same,MIC,"[16]; CF7AL, ant(4′)-Ia, 8 μg/ml of tomatidine, read-out: MIC +TO",64 to 256 µg/mL
same,MIC,"[16]; CF7AL, ant(4′)-Ia, absence of tomatidine, read-out: MIC −TO",256 to 512 µg/mL
same,MIC,[16]; [23],256 to 512 µg/mL
same,Fold (−TO/+TO),[17]; 8 μg/ml of tomatidine,2-4 fold
same,MIC,[17]; [20],2 to 8 µg/mL
same,MIC,[17]; [22],16 µg/mL
same,MIC,[17]; [21],16 µg/mL
same,Fold (−TO/+TO),[18]; 8 μg/ml of tomatidine,1-2 fold
same,MIC,"[18]; CF9AL, ant(4′)-Ia, 8 μg/ml of tomatidine, read-out: MIC +TO",128 to 256 µg/mL
same,MIC,"[18]; CF9AL, ant(4′)-Ia, absence of tomatidine, read-out: MIC −TO",256 µg/mL
same,MIC,[18]; [23],256 µg/mL
same,Fold (−TO/+TO),[19]; 8 μg/ml of tomatidine,4 fold
same,MIC,"[19]; CF35AL, 8 μg/ml of tomatidine, read-out: MIC +TO",1 µg/mL
same,MIC,"[19]; CF35AL, absence of tomatidine, read-out: MIC −TO",4 µg/mL
same,MIC,[19]; [23],4 µg/mL
